Counter-ions that a name gives are not always drawn. Like-named read-outs stand apart in the source and are kept apart here.
Experiments:
[1] = target: His-tagged KRAS G12D protein (Homo sapiens (Human), UniProt P01116, G12D); assay: KRAS G12D TR-FRET Assay; assay type: binding
How it was run: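 His-tagged KRAS G12D (diluted to 20 nM in pH 7.4 HEPES buffer with 10 mM MgCl2 and 10 μM GDP) was preincubated with titrated compound for 30 min at room temperature. Biotinylated KRPep-2d peptide (diluted to 20 nM) was then added for 1 h, and displacement was monitored by TR-FRET.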

[2] = target: GDP-bound KRAS protein (aa 1-169), containing both G12D and C118A amino acid substitutions (Homo sapiens (Human), UniProt P01116, C118A/G12D); assay: KRAS G12D Coupled Nucleotide Exchange Assay; assay type: biochemical
[3] = read-out: KRAS G12D Binding IC50
[4] = read-out: KRAS G12D Coupled Exchange IC50
[5] = TR-FRET, read-out: KRAS G12D Binding
[6] = 2 hours compound pre-incubation, read-out: KRAS G12D Coupled Exchange

Chain of GDP-bound KRAS protein (aa 1-169), containing both G12D and C118A amino acid substitutions (P01116 other isoform, or with tags, fused parts or gaps G12D/C118A): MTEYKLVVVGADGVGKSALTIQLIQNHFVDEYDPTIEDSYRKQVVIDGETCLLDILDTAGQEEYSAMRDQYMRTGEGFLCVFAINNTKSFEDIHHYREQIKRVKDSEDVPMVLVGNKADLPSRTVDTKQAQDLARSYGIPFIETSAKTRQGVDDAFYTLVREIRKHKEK
Chain of His-tagged KRAS G12D protein (P01116 other isoform, or with tags, fused parts or gaps G12D): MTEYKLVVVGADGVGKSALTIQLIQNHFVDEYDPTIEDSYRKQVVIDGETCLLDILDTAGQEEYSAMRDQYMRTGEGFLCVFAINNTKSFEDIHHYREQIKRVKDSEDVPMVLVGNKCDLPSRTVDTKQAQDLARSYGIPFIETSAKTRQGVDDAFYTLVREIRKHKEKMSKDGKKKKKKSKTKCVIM

IC50 [1, 3] [µM] | IC50 [2, 4] [µM] | IC50 [1, 5] [µM] | IC50 [2, 6] [µM] | Compound
0.012 | 0.01 | – | – | O=C1OC[C@H]2C[C@H]2c2c(Cl)cc3[nH]ncc3c2-c2ncc3c(nc(OC[C@@]45CCCN4C[C@H](F)C5)nc3c2F)N2CCC[C@H](C2)O1 [Example 46, (11R,13S,18R)-9-chloro-31-fluoro-25-(((2R,7aS)-2-fluorotetrahydro-1H-pyrrolo[1,2-a]pyrrol-7a(5H)-yl)methoxy)-15,17-dioxa-5,6,22,24,26,30-hexaazaheptacyclo[25.3.1.1˜18,22˜.0˜2,10˜.0˜3,7˜.0˜11,13˜.0˜23,28˜]dotriaconta-1(31),2,4,7,9,23,25,27,29-nonaen-16-one bis(2,2,2-trifluoroacetate)]
0.07 | 0.042 | – | – | Cc1cc2[nH]ncc2c2c1CCC(=O)OCCC1CCCN(C1)c1nc(OC[C@@]34CCCN3C[C@H](F)C4)nc3c(F)c-2ncc13 (mixture of isomers) [Example 107]
2.49 | 1.54 | – | – | Cc1cc2[nH]ncc2c2c1CCCCC(=O)N[C@@H]1CN(C[C@@H]3C[C@@H]31)c1nc(OC[C@@]34CCCN3C[C@H](F)C4)nc3c(F)c-2ncc13 [Example 170, (26S,27S,29R)-32-fluoro-4-(((2R,7aS)-2-fluorotetrahydro-1H-pyrrolo[1,2-a]pyrrol-7a(5H)-yl)methoxy)-18-methyl-1,3,5,9,14,15,25-heptaazaheptacyclo[24.4.1.1~6,10~.0~2,7~.0~11,19~.0~12,16~.0~27,29~]dotriaconta-2,4,6,8,10(32),11,13,16,18-nonaen-24-one]
0.642 | 0.343 | – | – | Fc1ccc2cccc3c2c1CCOCC[C@@H]1CCCN(C1)c1nc(OC[C@@]24CCCN2C[C@H](F)C4)nc2c(F)c-3ncc12 [Example 223]
0.043 | 0.043 | – | – | Cc1cc2[nH]ncc2c2c1CCCCCC(=O)N[C@]1(C)CCCN(C1)c1nc(OC[C@@]34CCCN3C[C@H](F)C4)nc3c(F)c-2ncc13 [Example 21, (18R)-31-Fluoro-25-(((2R,7aS)-2-fluorotetrahydro-1H-pyrrolo[1,2-a]pyrrol-7a(5H)-yl)methoxy)-9,18-dimethyl-5,6,17,22,24,26,30-heptaazahexacyclo[25.3.1.1˜18,22˜0.0˜2,10˜0.0˜3,7˜0.0˜23,28˜]dotriaconta-1(31),2,4,7,9,23,25,27,29-nonaen-16-one]
7.57 | 3.62 | – | – | Cc1cc2[nH]ncc2c2c1CCCOC(=O)O[C@@]1(C)COCCN(C1)c1nc(OC[C@@H]3CCCN3C)nc3c(F)c-2ncc13 [Example 182, (26R)-32-fluoro-18,26-dimethyl-4-(((2S)-1-methyl-2-pyrrolidinyl)methoxy)-23,25,28-trioxa-1,3,5,9,14,15-hexaazahexacyclo[24.4.1.1~6,10~.0~2,7~.0~11,19~.0~12,16~]dotriaconta-2,4,6,8,10(32),11,13,16,18-nonaen-24-one]
0.071 | 0.056 | – | – | Fc1c2ncc3c(nc(OC[C@@]45CCCN4C[C@H](F)C5)nc13)N1CCO[C@@H](COCCOCc3c(Cl)cc4[nH]ncc4c3-2)C1 [Example 152, (17R)-9-chloro-30-fluoro-24-(((2R,7aS)-2-fluorotetrahydro-1H-pyrrolo[1,2-a]pyrrol-7a(5H)-yl)methoxy)-12,15,18-trioxa-5,6,21,23,25,29 hexaazahexacyclo[24.3.1.1~17,21~.0~2,10~.0~3,7~.0~22,27~]hentriaconta-1(30),2,4,7,9,22,24,26,28-nonaene]
0.068 | 0.048 | – | – | C[C@@]12CCCN(C1)c1nc(OC[C@@]34CCCN3C[C@H](F)C4)nc3c(F)c(ncc13)-c1cc(O)cc3c1[C@H](CCCC(=O)N2)CCC3 [Example 28, (15R,21S)-31-fluoro-8-(((2R,7aS)-2-fluorotetrahydro-1H-pyrrolo[1,2-a]pyrrol-7a(5H)-yl)methoxy)-27-hydroxy-15-methyl-3,7,9,11,16-pentaazahexacyclo[19.7.1.1˜2,6˜.1˜11,15˜.0˜5,10˜.0˜25,29˜]hentriaconta-1(29),2(31),3,5,7,9,25,27-octaen-17-one 2,2,2-trifluoroacetate salt]
– | – | 1.17 | 0.198 | OC1c2ncc(o2)CCc2c(Cl)cc3[nH]ncc3c2-c2ncc3c(nc(OC[C@@]45CCCN4C[C@H](F)C5)nc3c2F)N2CCO[C@@H]1C2 (stereo in doubt) [Example 395, (17R,18R)-9-chloro-31-fluoro-25-(((2R,7aS)-2-fluorotetrahydro-1H-pyrrolo[1,2-a]pyrrol-7a(5H)-yl)methoxy)-19,33-dioxa-5,6,15,22,24,26,30-heptaazaheptacyclo[25.3.1.1~13,16~.1~18,22~.0~2,10~.0~3,7~.0~23,28~]tritriaconta-1(31),2,4,7,9,13,15,23,25,27,29-undecaen-17-ol]
2.44 | 0.79 | – | – | CN1CCC[C@H]1COc1nc2c3cnc(c(F)c3n1)-c1c(c(Cl)cc3[nH]ncc13)CCCOC(=O)O[C@@]1(CF)COCCN2C1 [Example 337, (26R)-18-chloro-32-fluoro-26-(fluoromethyl)-4-(((2S)-1-methyl-2-pyrrolidinyl)methoxy)-23,25,28-trioxa-1,3,5,9,14,15-hexaazahexacyclo[24.4.1.1~6,10~.0~2,7~.0~11,19~.0~12,16~]dotriaconta-2,4,6,8,10(32),11,13,16,18-nonaen-24-one]
0.01 | 0.007 | – | – | Cc1c2ncc3c(nc(OC[C@]45CC[C@@H](CC4)C(=O)N5)nc13)N1CCC[C@](C)(C1)NC(=O)CCCc1c(F)ccc3cc(O)cc-2c13 [Example 25, (15R)-22-Fluoro-27-hydroxy-15,31-dimethyl-8-(((1s,4s)-3-oxo-2-azabicyclo[2.2.2]octan-1-yl)methoxy)-3,7,9,11,16-pentaazahexacyclo[19.7.1.1˜2,6˜.1˜11,15˜.0˜5,10˜.0˜25,29˜]hentriaconta-1(28),2(31),3,5,7,9,21,23,25(29),26-decaen-17-one]
19.3 | 5.9 | – | – | CN1C(=O)COCC[C@H]2CCc3cc4[nH]ncc4c(c32)-c2ncc3c(nc(OC[C@@]45CCCN4C[C@H](F)C5)nc3c2F)N2CCC[C@@H]1C2 [Example 278, (15R,22R)-34-fluoro-8-(((2R,7aS)-2-fluorotetrahydro-1H-pyrrolo[1,2-a]pyrrol-7a(5H)-yl)methoxy)-16-methyl-19-oxa-3,7,9,11,16,28,29-heptaazaheptacyclo[20.9.1.1~2,6~.1~11,15~.0~5,10~.0~25,32~.0~27,31~]tetratriaconta-1(31),2(34),3,5,7,9,25(32),26,29-nonaen-17-one]
4.48 | 4.07 | – | – | Cc1cc2[nH]ncc2c2c1CCCCO[C@H](C)[C@@H]1CN(CCO1)c1nc(OC[C@@]34CCCN3C[C@H](F)C4)nc3c(F)c-2ncc13 [Example 243, (16R,17S)-30-fluoro-24-(((2R,7aS)-2-fluorotetrahydro-1H-pyrrolo[1,2-a]pyrrol-7a(5H)-yl)methoxy)-9,16-dimethyl-15,18-dioxa-5,6,21,23,25,29-hexaazahexacyclo[24.3.1.1~17,21~.0~2,10~.0~3,7~.0~22,27~]hentriaconta-1(30),2,4,7,9,22,24,26,28-nonaene]
– | – | 0.005 | 0.002 | O[C@H]1C[C@@H]2CN(C1)c1nc(OC[C@@]34CCCN3C[C@H](F)C4)nc3c(F)c(ncc13)-c1c(c(Cl)cc3[nH]ncc13)CCCc1nc2no1 (mixture of isomers) [Example 377]
12.7 | 4.43 | – | – | C[C@]12CCCCN(C1)c1nc(OC[C@@]34CCCN3C[C@H](F)C4)nc3c(F)c(ncc13)-c1c(c(Cl)cc3[nH]ncc13)CCCCC(=O)N2 [Example 165, (26S)-18-chloro-32-fluoro-4-(((2R,7aS)-2-fluorotetrahydro-1H-pyrrolo[1,2-a]pyrrol-7a(5H)-yl)methoxy)-26-methyl-1,3,5,9,14,15,25-heptaazahexacyclo[24.4.1.1~6,10~.0~2,7~.0~11,19~.0~12,16~]dotriaconta-2,4,6,8,10(32),11,13,16,18-nonaen-24-one]
1.77 | 1.03 | – | – | O=C1N[C@@H]2CN(C[C@@H]3C[C@@H]32)c2nc(OC[C@@]34CCCN3C[C@H](F)C4)nc3c(F)c(ncc23)-c2c(c(Cl)cc3[nH]ncc23)CCC[C@H]1F [Example 172, (23R,26S,27S,29R)-18-chloro-23,32-difluoro-4-(((2R,7aS)-2-fluorotetrahydro-1H-pyrrolo[1,2-a]pyrrol-7a(5H)-yl)methoxy)-1,3,5,9,14,15,25-heptaazaheptacyclo[24.4.1.1~6,10~.0~2,7~.0~11,19~.0~12,16~.0~27,29~]dotriaconta-2,4,6,8,10(32),11,13,16,18-nonaen-24-one]
0.07 | 0.067 | – | – | Cc1cc2[nH]ncc2c2c1CCCCCO[C@@H]1CCCN(C1)c1nc(OC[C@@]34CCCN3C[C@H](F)C4)nc3c(F)c-2ncc13 [Example 132]
– | – | 0.097 | 0.046 | O=C1CCCCc2c(Cl)cc3[nH]ncc3c2-c2ncc3c(nc(OC[C@@]45CCCN4C[C@H](F)C5)nc3c2F)N2CC[C@H]3[C@@H](C2)N1CC3(F)F (single isomer, unassigned) [Example 402]
3.27 | 2.42 | – | – | Fc1c2ncc3c(nc(OC[C@@]45CCCN4C[C@H](F)C5)nc13)N1CCO[C@]3(C1)C[C@H](C3)OCCCCc1c(Cl)cc3[nH]ncc3c1-2 (single isomer, unassigned) [Example 262]
0.077 | 0.009 | – | – | O[C@H]1c2ncc(o2)CCc2c(Cl)cc3[nH]ncc3c2-c2ncc3c(nc(OC[C@@]45CCCN4C[C@H](F)C5)nc3c2F)N2CCC[C@@H]1C2 [Example 234]

Reference: patent US20240294551A1 (AMGEN INC., priority 2022, published 2024)
